Experiment [1] has as its system Candida oleophila strain O. Put plainly: Compatibility test on fungicide-amended PDA solid medium (colony count of biocontrol agent). Type of experiment: cell-based. As to conditions: for Compatibility: Candida oleophila strain O 10^2-10^3 cfu/ml. On the procedure:
“Compatibility” as used herein the specification, means how well a fungicide mixes with other substances. It's important to know how two formulations interact with other to avoid problems like reduced effectiveness or increased toxicity and herein measured by the unaffected colony count of biocontrol agent upon mixing with chemical fungicides.
The disclosure will be illustrated with reference to the following examples: Compatibility of biocontrol agent: Candida oleophila strain O was tested with various preharvest and post-harvest fungicides to test if they have any negative effect on Candida oleophila strain activity. The dry mass of a single Candida oleophila cell, including strain O, is approximately 47.65 picograms (pg) (48 pg=48×10^−9 mg), which is a typical mass for a single yeast cell.
1 gram of biomass (10^10 cfu/gm) was activated in 100 ml of water for 45 minutes. 1 ml of the biomass suspension was mixed with 99 ml of lactate dilution (2 g calcium lactate diluted in 99 ml water). Biomass solution was further diluted to 100 and 1000 folds and 100 μl of the diluted biomass solution was plated on synthetic fungicide amended PDA (Potato dextrose agar) plates, which yields around 10^3 and 10^2 cfu/plate, respectively, in fully compatible mixtures. Plates were incubated at 23° C. and the growth of CFUs (colony forming units) and total number of Candida oleophila colonies were counted after 5-7 days.
Pesticide amended PDA plates were prepared by inoculating pesticide on a Potato dextrose agar plate at no treatment (control), standard (full dose) and reduced (half dose) depending on the treatments. For e.g., if a pesticide has standard dose concentration of 5 ppm, then plates were prepared at 0 ppm, 2.5 ppm and 5 ppm. with that pesticide.

In another experiment the test system is Neofabraea perennans. The experiment can be described thus: Artificial wound inoculation of Fuji apples, bull's eye rot decay. Type of experiment: in vivo. As to conditions: solo at full rate (TBZ 1.45 g/L, PYR 1.35 g/L, FDL 0.85 g/L, C. oleophila 0.33 g/L), control 98. On the procedure: (§1) Several lab trials were conducted to test efficacy of Candida oleophila strain O against major post-harvest pathogens of pome (Blue mold: Penicillium expansum, Gray mold: Botrytis cinerea, Bull's eye rot: Neofabraea perennans and Mucor rot and to test synergistic interaction of Candida oleophila strain O with 3 post-harvest fungicides of pome fruits namely Fludioxonil (FDL), Pyrimethanil (PYR) and Thiabendazole (TBZ).
(§2) Candida oleophila strain O was applied solo and in combination with three different post-harvest fungicides at full rate (FR) and half label rate (HR) (for conventional fungicides) to study its compatibility and synergist interaction. Testing was done on artificially/lab inoculated and naturally infected fruits.
(§3) For artificial inoculations through wound, washed fruits were wounded twice at the stem end region and were kept for 30 mins to dry the juice from the wound site. Fruits were fully submerged in fungicide solutions for 1 min and then transferred to a perforated basket to drip dry. Fruits were the transferred to the fruit trays and were left to dry overnight. 5×10^4 fungal spores/mL spore suspension of post-harvest pathogens as indicated above was prepared for inoculation. 50 μL spore suspension was transferred in each wound using a pipette and was left to dry for 1 hr at room temperature. Fruits were stored in cold storage. Fruit decay was monitored periodically, when decay on control fruit was above 80%, the disease incidence and severity was evaluated on all the treatments.

The test system of a further experiment is Botrytis cinerea. The experiment can be described thus: Artificial wound inoculation of Fuji apples, gray mold decay. As to conditions: solo at full rate (PYR 1.35 g/L, FDL 0.85 g/L, C. oleophila 0.33 g/L), control 47. Type of experiment: in vivo. On the procedure: as §1, §2
as §3, with “50 μL spore suspension was transferred in each wound using a pipette and was left to dry for 1 hr at room temperature. Fruits were stored in cold storage.” left out

The next experiment concerns Mucor sp. Put plainly: Artificial wound inoculation of Fuji apples, Mucor rot decay. It counts as in vivo. As to conditions: solo at full rate (TBZ 1.45 g/L, PYR 1.35 g/L, FDL 0.85 g/L, C. oleophila 0.33 g/L), control 100. On the procedure: as §1, §2, §3
The next experiment concerns Penicillium expansum. The experiment can be described thus: Artificial wound inoculation of Fuji apples, blue mold decay. As to conditions: solo at full rate (TBZ 1.45 g/L, PYR 1.35 g/L, FDL 0.85 g/L, C. oleophila 0.33 g/L), control 94. Type of experiment: in vivo. The method, then: as §1, §2, §3
Experiment [2] concerns Candida oleophila strain O. The experiment can be described thus: Compatibility test on fungicide-amended PDA solid medium (colony count of biocontrol agent). Type of experiment: cell-based. The following applies: Candida oleophila strain O 10^6 cfu/ml.

Each structure is given as a SMILES string.

On to `O=C(Nc1ccccc1-c1ccc(Cl)cc1)c1cccnc1Cl` [Boscalid], for which the “Compatibility of Candida oleophila strain O with the fungicide (text summary of Table 1)” value (“Compatibility … (text summary of Table 1)” for short) in experiment [1] is given as “compatible”.
Still for that read-out and setting: the same measure for `[Cl-].[Cu+2].[Cu+2].[OH-].[OH-].[OH-]` [Copper oxychloride]: “compatible”; for `O=S(=O)([O-])[O-].[Cu+2]` [Copper sulphate]: “compatible”.
On to `N#Cc1c[nH]cc1-c1cccc2c1OC(F)(F)O2` [Fludioxonil], for which, in the experiment on Neofabraea perennans, the “Decay severity (%) Neofabrea sp.” value worked out at 83%. Moreover, in experiment [1], the “Compatibility … (text summary of Table 1)” value is given as “compatible”. Moreover, the “Decay severity (%) Botrytis sp.” value in the experiment with Botrytis cinerea came out at 2%. The “Decay severity (%) Mucor sp.” value in the experiment with Mucor sp. is 100%. In addition, the “Decay severity (%) Penicillium sp.” value with Penicillium expansum is given as 0%.
`Cn1cc(C(=O)Nc2ccccc2-c2cc(F)c(F)c(F)c2)c(C(F)F)n1` [Fluxapyroxad]: the “Compatibility … (text summary of Table 1)” value in experiment [1] is “compatible”. The Compatibility entry is listed as “YES” in experiment [1] (fungicide 300 g/L a.i., tested dosage 0.5-2 ppm) and “YES” in experiment [1] (fungicide 300 g/L a.i., tested dosage 0.9 ppm).
`COC(=O)N(OC)c1ccccc1COc1ccn(-c2ccc(Cl)cc2)n1` [Pyraclostrobin]: the “Compatibility … (text summary of Table 1)” value in experiment [1] is “compatible”. Further, the Compatibility result in experiment [1] (fungicide 250 g/L a.i., tested dosage 2-8 ppm) was “YES”.
With `Cc1cc(C)nc(Nc2ccccc2)n1` [Pyrimethanil], the “Decay severity (%) Neofabrea sp.” value in the experiment with Neofabraea perennans is listed as 70%. Further, the “Compatibility … (text summary of Table 1)” value in experiment [1] is reported as “compatible”. For the same compound, the “Decay severity (%) Botrytis sp.” value in the experiment on Botrytis cinerea is 7%. In addition, the Compatibility entry in experiment [2] (fungicide 600 g/L a.i., tested dosage 800 ppm) is given as “YES”. For the same compound, the “Decay severity (%) Mucor sp.” value with Mucor sp. was 100%. The “Decay severity (%) Penicillium sp.” value in the experiment with Penicillium expansum is given as 7%.
`c1ccc2[nH]c(-c3cscn3)nc2c1` [Thiabendazole]: the “Decay severity (%) Neofabrea sp.” value in the experiment with Neofabraea perennans is 22%. The “Compatibility … (text summary of Table 1)” value in experiment [1] was “compatible”. For the same compound, the Compatibility result in experiment [2] (fungicide 500 g/L a.i., tested dosage 200 ppm) is “YES”. Moreover, the “Decay severity (%) Mucor sp.” value with Mucor sp. turned out to be 100%. The “Decay severity (%) Penicillium sp.” value in the experiment with Penicillium expansum is listed as 4%.
On to `COC(=O)NC(=S)Nc1ccccc1NC(=S)NC(=O)OC` [Thiophanate-methyl], for which the “Compatibility … (text summary of Table 1)” value in experiment [1] is “compatible”.
